According to article PMC5548886 (Cancer Medicine, 2017):

How the values were obtained:
Assay in all cases: IHC of tumor biopsies, H-score change on-treatment vs pretreatment
Assay type in all cases: in vivo, human
p27 = tested on: p27
Procedure: (§1) Pharmacodynamic markers were examined using peripheral blood samples, tumor and nevi biopsies (when available) and tumor imaging. BRAF mutation status was determined by Sanger sequencing. Pharmacodynamic markers analyzed, in available tumor/nevus samples obtained before treatment or archival tissue and during treatment on cycle 1, day 8 or day 15, including cytoplasmic p‐MEK, p‐ERK, BIM, c‐KIT, p‐AKT473, pS6 and PTEN, and nuclear p‐ERK, Ki‐67, PARP, cyclin D1, MITF, p27, and p53. Biomarker expression was determined by calculating the percentage of change in the H‐score (14) between on‐treatment and fresh/archival pretreatment specimens. Blood levels of VEGFR‐2 and were assessed before and at multiple time points while on treatment using enzyme‐linked immunosorbent assay (ELISA). […] Changes in standard uptake value (SUV) were determined by a blinded, independent central imaging review panel. Complete metabolic response (CMR) was complete resolution of tumor FDG‐PET uptake so SUV is the same as background. Partial metabolic response (PMR) decrease in sum of the tumor SUV of ≥25% from the baseline scan. Progressive metabolic disease (PMD) was defined as an increase in tumor SUV of ≥25% from the baseline scan, or the appearance of new FDG‐PET uptake in metastatic lesions. Stable metabolic disease (SMD) was defined as a change in tumor SUV between the PMR and PMD criteria.

PTEN = tested on: PTEN
Procedure: as §1

cytoplasmic p-ERK = tested on: cytoplasmic p-ERK
Procedure: as §1

PARP = tested on: PARP
Procedure: as §1

MITF = tested on: MITF
Procedure: as §1

nuclear p-ERK = tested on: nuclear p-ERK
Procedure: as §1

With `Cn1c(Nc2ccc(C(F)(F)F)cc2)nc2cc(Oc3ccnc(-c4ncc(C(F)(F)F)[nH]4)c3)ccc21` [RAF265] the “P27 % change vs pretreatment, Mean (SD)” value (p27; DL 5, n 2) was -40 (56.6) %, the “P27 % change vs pretreatment, Median” value (p27; DL 5, n 2) was -40% and the “p27 abundance, median increase” value (p27; DL 6) was 30.4%. The “P27 % change vs pretreatment, Mean (SD)” value (p27; DL 6, n 5) was “+156.4 (312.2) %”, the “P27 % change vs pretreatment, Median” value (p27; DL 6, n 5) was “+30.4%” and the “p27 abundance, median increase” value (p27; DL 7/7.1) was 72.2%. For the same molecule, the “P27 % change vs pretreatment, Mean (SD)” value (p27; DLs 1 - 4, n 9) was -2.2 (44) %, the “P27 % change vs pretreatment, Median” value (p27; DLs 1 - 4, n 9) was 0% and the “P27 % change vs pretreatment, Mean (SD)” value (p27; DLs 7 and 7.1, n 4) was “+261.1 (427.3) %”. The “P27 % change vs pretreatment, Median” value (p27; DLs 7 and 7.1, n 4) was “+72.2%”, the “PTEN % change vs pretreatment, Mean (SD)” value (PTEN; All patients, n 18) was -3.16 (32.4) % and the “PTEN % change vs pretreatment, Median” value (PTEN; All patients, n 18) was 0%. For the same molecule, the “PTEN % change vs pretreatment, Mean (SD)” value (PTEN; DL 5, n 2) was 0%, the “PTEN % change vs pretreatment, Median” value (PTEN; DL 5, n 2) was 0% and the “PTEN % change vs pretreatment, Mean (SD)” value (PTEN; DL 6, n 5) was -9.4 (27) %. The “PTEN % change vs pretreatment, Median” value (PTEN; DL 6, n 5) was 0%, the “PTEN % change vs pretreatment, Mean (SD)” value (PTEN; DLs 1 - 4, n 8) was -5 (44.1) % and the “PTEN % change vs pretreatment, Median” value (PTEN; DLs 1 - 4, n 8) was -7.4%. For the same molecule, the “PTEN % change vs pretreatment, Mean (SD)” value (PTEN; DLs 7 and 7.1, n 3) was 10 (17.3) %, the “PTEN % change vs pretreatment, Median” value (PTEN; DLs 7 and 7.1, n 3) was 0% and the “p-ERK IHC staining, on-treatment versus pretreatment” value (cytoplasmic p-ERK; 23 patients) was “dose‐dependent p‐ERK inhibition”. The “cytoplasmic pERK % change vs pretreatment, Mean (SD)” value (“cytoplasmic pERK % change … (SD)” below) (cytoplasmic p-ERK; All patients, n 13) was -3.6 (48.6) %, the “cytoplasmic pERK % change vs pretreatment, Median” value (from here on “cytoplasmic pERK % change … Median”) (cytoplasmic p-ERK; All patients, n 13) was -11.8% and the “cytoplasmic pERK % change … (SD)” value (cytoplasmic p-ERK; DL 5, n 2) was “+27.1 (56) %”. For the same molecule, the “cytoplasmic pERK % change … Median” value (cytoplasmic p-ERK; DL 5, n 2) was “+27.1%”, the “cytoplasmic pERK % change … (SD)” value (cytoplasmic p-ERK; DL 6, n 5) was -27.0 (40.9) % and the “cytoplasmic pERK % change … Median” value (cytoplasmic p-ERK; DL 6, n 5) was -50.00%. For the same molecule, the “cytoplasmic pERK % change … (SD)” value (cytoplasmic p-ERK; DLs 1 - 4, n 2) was “+52.3 (80) %”, the “cytoplasmic pERK % change … Median” value (cytoplasmic p-ERK; DLs 1 - 4, n 2) was “+52.3%” and the “cytoplasmic pERK % change … (SD)” value (cytoplasmic p-ERK; DLs 7 and 7.1, n 4) was -17.8 (11.5) %. The “cytoplasmic pERK % change … Median” value (cytoplasmic p-ERK; DLs 7 and 7.1, n 4) was -13.5%, the p-ERK expression change (cytoplasmic p-ERK; patients treated at DL1-5) was “increase in p‐ERK expression” and the p-ERK abundance change (cytoplasmic p-ERK; patients treated at DL 6-7.1) was “moderately decreased p‐ERK abundance”. For the same molecule, the “PARP % change vs pretreatment, Mean (SD)” value (PARP; All patients, n 14) was “+89.1 (172.3) %”, the “PARP % change vs pretreatment, Median” value (PARP; All patients, n 14) was “+33.3%” and the “PARP % change vs pretreatment, Mean (SD)” value (PARP; DL 6, n 3) was “+20.00 (121.2) %”. The “PARP % change vs pretreatment, Median” value (PARP; DL 6, n 3) was 0.00%, the “PARP % change vs pretreatment, Mean (SD)” value (PARP; DLs 1 - 4, n 8) was “+65.1 (180.5) %” and the “PARP % change vs pretreatment, Median” value (PARP; DLs 1 - 4, n 8) was -20%. The “PARP % change vs pretreatment, Mean (SD)” value (PARP; DLs 7 and 7.1, n 3) was “+222.2 (167.8) %”, the “PARP % change vs pretreatment, Median” value (PARP; DLs 7 and 7.1, n 3) was “+200.00%” and the “MITF % change vs pretreatment, Mean(SD)” value (MITF; All patients, n 21) was “+197.3(856.9) %”. For the same molecule, the “MITF % change vs pretreatment, Median” value (MITF; All patients, n 21) was -13.2%, the “MITF % change vs pretreatment, Mean(SD)” value (MITF; DL 5, n 2) was “+11.8 (23.7) %” and the “MITF % change vs pretreatment, Median” value (MITF; DL 5, n 2) was “+11.8%”. The “MITF % change vs pretreatment, Mean(SD)” value (MITF; DL 6, n 6) was “+20.1 (111.3) %”, the “MITF % change vs pretreatment, Median” value (MITF; DL 6, n 6) was -6.60% and the “MITF % change vs pretreatment, Mean(SD)” value (MITF; DLs 1 - 4, n 9) was “+400.6(1312.5) %”. The “MITF % change vs pretreatment, Median” value (MITF; DLs 1 - 4, n 9) was -27.3%, the “MITF % change vs pretreatment, Mean(SD)” value (MITF; DLs 7 and 7.1, n 4) was “+98.6 (239.7) %” and the “MITF % change vs pretreatment, Median” value (MITF; DLs 7 and 7.1, n 4) was 0%. For the same molecule, the “nuclear pERK % change vs pretreatment, Mean (SD)” value (“nuclear pERK % change … (SD)” for short) (nuclear p-ERK; All patients, n 21) was -2 (51.6) %, the “nuclear pERK % change vs pretreatment, Median” value (shortened to “nuclear pERK % change … Median”) (nuclear p-ERK; All patients, n 21) was 0% and the “nuclear pERK % change … (SD)” value (nuclear p-ERK; DL 5, n 2) was “+18.2 (35.8) %”. The “nuclear pERK % change … Median” value (nuclear p-ERK; DL 5, n 2) was “+18.2%”, the “nuclear pERK % change … (SD)” value (nuclear p-ERK; DL 6, n 5) was -41.8 (48) % and the “nuclear pERK % change … Median” value (nuclear p-ERK; DL 6, n 5) was -22.2%. For the same molecule, the “nuclear pERK % change … (SD)” value (nuclear p-ERK; DLs 1 - 4, n 10) was “+21.1 (52.13) %”, the “nuclear pERK % change … Median” value (nuclear p-ERK; DLs 1 - 4, n 10) was 0% and the “nuclear pERK % change … (SD)” value (nuclear p-ERK; DLs 7 and 7.1, n 4) was -20.3 (31.3) %. For the same molecule, the “nuclear pERK % change … Median” value (nuclear p-ERK; DLs 7 and 7.1, n 4) was -7.6%.
